According to article PMC9747717, “A novel small molecule inhibitor of human Drp1” (Scientific Reports, 2022):

How the values were obtained:
human Drp1 isoform 3 [1] = target: T1, human Drp1 isoform 3 (Homo sapiens, UniProt O00429); assay: Microscale thermophoresis (MST) binding; conditions: human Drp1 isoform 3, 5% DMSO
T1 construct: His tag; made in house; host or cells: E. coli Rosetta (DE3), pET21b vector
Procedure: The recombinant human Drp1 protein (His-tagged human Drp1 isoform 3, kindly provided by Professor Michael Ryan, Monash University, Australia) was generated as described previously. Briefly, cDNA for human Drp1 (isoform 3) was cloned into pET21b vector and transformed in Rosetta (DE3) competent cells (Novagen, MA, Merck Millipore). Transformed cells were propagated in Luria–Bertani broth and protein expression was initiated by the addition of 0.5 mM isopropyl β-D-1-thiogalactopyranoside. Cells were harvested by centrifugation at 3,500 g for 20 min at 4 °C, and the pellet was re-suspended in lysis buffer containing 50 mM Tris HCl (pH 7.3), 500 mM NaCl, 50 mM imidazole, 2.5 mM β-mercaptoethanol, 0.01 mM LEUPEP, 0.1 mM AEBSF and 1 mM benzaminidium chloride. The cells were lysed using a pre-cooled EmulsiFlex-C5 homogenizer (Avestin, Ontario, Canada) on ice and clarified by centrifugation at 17,000 g for 30 min. The clarified cell lysate was loaded onto a 5 mL Nickel Chelating Sepharose Fast Flow column (GE Healthcare, Buckinghamshire, UK) and Drp1 protein was eluted with wash buffer containing 50 mM Tris–HCl (pH 7.6), 150 mM NaCl, 2.5 mM β-mercaptoethanol and 400 mM imidazole. […]
Compound binding was assessed in against the human Drp1 isoform-3 protein using MST Monolith NT.115 instrument (NanoTemper Technologies, Mȕnchen, Germany). […]

human Drp1 isoform 3 [2] = target: T1, human Drp1 isoform 3; assay: Drp1 GTPase activity, colorimetric malachite green assay; format: biochemical
Procedure: The GTPase activity of Drp1, which is required for the latter to mediate mitochondrial fission, was examined using the colorimetric GTPase assay kit (Innova Biosciences, Cambridge, UK) according to the manufacturer’s instructions. Compounds were diluted in DMSO (all with a final concentration of 0.1% DMSO). Recombinant human Drp1 protein isoform-3 (final concentration 0.25 ng/µL) was diluted in assay buffer containing 50 mM Tris HCl (pH 7.5) and 2.5 mM MgCl2, followed by incubation with compounds for 15 min at 37 °C in a 96 well plate. 0.5 mM GTP, diluted in assay buffer, was then added into the mixture followed by incubation at 37 °C for 30 min.
Upon binding to Drp1, GTP is hydrolysed into GDP and free phosphate (Pi)[24]. Therefore, the degree of GTPase inhibition was assessed by measuring the concentration of Pi released into the assay buffer, which is detected by a malachite green-based dye. The intensity of Pi-dye complex was assessed by measuring the light absorbance at 635 nm wavelength using a microplate reader (BenchMark Plus, MS, USA). Absorbance of each experimental group was normalised to the vehicle control (DMSO).

human Drp1 isoform 3 [3] = target: T1, human Drp1 isoform 3; assay: Surface plasmon resonance (SPR) binding; conditions: concentrations as high as 100 µM
Procedure: The recombinant human Drp1 protein (His-tagged human Drp1 isoform 3, kindly provided by Professor Michael Ryan, Monash University, Australia) was generated as described previously. Briefly, cDNA for human Drp1 (isoform 3) was cloned into pET21b vector and transformed in Rosetta (DE3) competent cells (Novagen, MA, Merck Millipore). Transformed cells were propagated in Luria–Bertani broth and protein expression was initiated by the addition of 0.5 mM isopropyl β-D-1-thiogalactopyranoside. […]
All SPR experiments were performed on a Biacore T200 instrument (GE Healthcare Life Sciences, Uppsala, Sweden) at 25 °C in the presence of HEPES buffered saline containing 20 mM phosphate (pH 7.5), 137 mM NaCl, 2.7 mM KCl and 0.05% Tween-20 (HBS + P). […] Sensor surface was activated with 1:1 mixture of 0.4 M EDC and 0.1 M NHS for 7 min, followed by incremental injections of the protein to reach ~ 8000 RU (flow rate 10 μL/minute) for a calculated maximum analyte binding capacity (Rmax) of 30–50 RU. […]
Compounds were dissolved in 100% dimethyl sulfoxide (DMSO) and then added to HBS + P at a final DMSO concentration of 2%. […] SPR results were analysed using the Biacore T200 Evaluation Software v.1.

[4] = Dynamic light scattering (DLS) compound aggregation threshold; format: physicochemical
Procedure: Identification of compound aggregation threshold was performed using DLS Zetasizer Nano ZS (Malvern Pananalytical, Worcestershire, UK). 100 µL of samples were measured in low-volume plastic micro cuvettes (BrandTech Scientific, CT, USA) at 25 °C using default size measurement settings. […] Mdivi-1 and DRP1i27 were serially diluted three-fold from 500 µM until the volume distribution of particle size was similar to that of the DMSO control. To specifically determine aggregation threshold, further dilution was carried out between concentrations where aggregation was first observed.

human Drp1 = target: human Drp1; parameters: method as in PMID 28350990; conditions: read-out: inhibitory constant (Ki), GTPase activity of human Drp1; cited from earlier work
[5] = test system: human iPSC-derived cardiomyocytes; assay: Doxorubicin-induced cardiomyocyte injury, LDH release; format: cell-based; conditions: doxorubicin 5 µM alone, 2 days
Procedure: Cardiomyocytes were derived from human induced pluripotent stem cells (iPSCs, CERA007c6 cell line) as previously described with modifications[26],[27]. Briefly, human iPSCs were seeded onto Matrigel (Corning) coated plates at a density of 1.25 × 10^5 cells/cm^2 in TeSR-E8 medium supplemented with 10 μM Y−27632 (Abcam). After 48 h (cells ~ 90% confluent) (day 0), medium was replaced with RPMI-1640 basal medium (Thermo Fisher Scientific) containing B-27 without insulin supplement (Thermo Fisher Scientific), growth factor reduced Matrigel (1:60 dilution) and 10 μM CHIR99021 (Cayman Chemical). At day 1, medium was replaced with RPMI 1640 basal medium containing B-27 without insulin supplement. […]
Enriched cardiomyocytes were replated onto Matrigel-coated 48-well plates at a cell density of 5 × 10^4 cells/cm^2 for 2 days. […] LDH levels in the conditioned media were assessed using a colorimetric CyQUANT LDH Cytotoxicity Assay Kit (Thermo Fisher Scientific) according to manufacturer’s protocol. […] Following the incubation at room temperature for 30 min in the dark, 50 μL of Stop Solution was added and absorbance was measured at 490 nm and 680 nm on a microplate spectrophotometer (Bio-Rad). All readings were then corrected for the background signal from the culture media and expressed as fold change.

T1 sequence (O00429 1-699 isoform O00429-4): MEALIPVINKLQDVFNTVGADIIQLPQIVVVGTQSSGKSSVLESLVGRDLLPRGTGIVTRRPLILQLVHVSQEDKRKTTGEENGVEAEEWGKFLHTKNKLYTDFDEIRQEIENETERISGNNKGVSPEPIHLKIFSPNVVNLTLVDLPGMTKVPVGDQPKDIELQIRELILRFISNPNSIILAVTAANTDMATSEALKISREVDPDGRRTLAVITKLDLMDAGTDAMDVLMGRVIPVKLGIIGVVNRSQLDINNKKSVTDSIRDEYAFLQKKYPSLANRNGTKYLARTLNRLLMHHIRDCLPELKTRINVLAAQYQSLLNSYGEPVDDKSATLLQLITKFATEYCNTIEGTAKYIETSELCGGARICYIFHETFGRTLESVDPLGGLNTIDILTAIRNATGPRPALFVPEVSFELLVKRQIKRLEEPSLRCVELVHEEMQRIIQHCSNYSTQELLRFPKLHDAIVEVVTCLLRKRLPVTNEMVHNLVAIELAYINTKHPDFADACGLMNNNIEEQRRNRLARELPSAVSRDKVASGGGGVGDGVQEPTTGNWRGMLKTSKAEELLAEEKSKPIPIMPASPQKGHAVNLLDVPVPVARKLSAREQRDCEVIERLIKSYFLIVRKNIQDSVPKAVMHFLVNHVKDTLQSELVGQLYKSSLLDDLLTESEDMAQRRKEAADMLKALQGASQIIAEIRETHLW

Structure (SMILES)	Kd (human Drp1 isoform 3 [1])	inhibition of GTPase activity of human Drp1 (human Drp1 isoform 3 [2]; 5 µM)	inhibition of GTPase activity of human Drp1 (human Drp1 isoform 3 [2]; increasing concentration above 5 µM)	SPR binding response (human Drp1 isoform 3 [3])	aggregation threshold ([4]; 2% DMSO with 0.05% Tween-20)	aggregation threshold ([4]; 5% DMSO with 0.05% Tween-20)	aggregation threshold ([4]; PBS, 2% DMSO)	aggregation threshold ([4]; PBS, 5% DMSO)	concentrations at which the compound aggregated ([4]; assay buffer containing DMSO and Tween-20)	Ki (human Drp1)	LDH release [5]
COc1cc(-n2c(=S)[nH]c3ccccc3c2=O)c(Cl)cc1Cl [Mdivi-1]	0.23 µM	significant inhibition	not observed	no binding response	70 µM	18.5 µM	20 µM	35 µM	above 18.5 µM	> 1200 µM	
COc1cccc2c1C(=O)c1c(O)c3c(c(O)c1C2=O)C[C@@](O)(C(=O)CO)C[C@@H]3O[C@H]1C[C@H](N)[C@H](O)[C@H](C)O1 [doxorubicin, reference compound]											3.41 ± 0.11 fold change
